Common to all, as to experiment: NCI tumour cell line growth inhibition, 48 h
Assay [1] deals with SR leukemia.
Assay [2] deals with HCC-2998 colon.
Assay [3] has as its system NCI-H226 lung.
The subject of assay [4] is HCT-116 colon.
For assay [5], the system named is MOLT-4 leukemia.
Assay [6] has as its system HL-60(TB) leukemia.
The subject of assay [7] is NCI/ADR-RES ovarian.
In assay [8] the test system is RXF 393 renal.
Assay [9] has as its system CAKI-1 renal.
Assay [10] has as its system OVCAR-5 ovarian.

Each structure is given as a SMILES string.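 Cultured in 96-well plates, cells were exposed to test compound for 48 hours across five concentrations. Here, GI50 denotes the concentration required for 50% inhibition of growth. TGI: total growth inhibition.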

17 compounds from PubChem BioAssay (NCI) can be followed below.

`CN1CCc2nc3sc(C(N)=O)c(N)c3c(-c3cccs3)c2C1`: the GI50 in assay [1] is 1.8 µM; in [2] it was 3.54 µM; in [3] it was 3.16 µM; in assay [4] it was 2.31 µM; in [5] it was 2.89 µM; in [6] it was 2.5 µM. Further, the GI50 is 3.69 µM in assay [7], 1.11 µM in [8] and 2.82 µM in assay [9]. The TGI in assay [1] was 7.31 µM; in [2], 20.9 µM; in [3] it was over 100 µM; in assay [4], over 100 µM; in [5] it was 48.4 µM; in [6], 6.97 µM. Also, the figures for the TGI in assay [7], in assay [8] and in [9] were 98.8 µM, 3.63 µM and over 100 µM, respectively.

Regarding `CC(=O)O[C@@H]1C[C@@]2(C)[C@@H]3CC=C4[C@@H](C[C@H](O)C(=O)C4(C)C)[C@]3(C)C(=O)C[C@]2(C)[C@H]1[C@@](C)(O)C(=O)/C=C/C(C)(C)OC(C)=O`, the TGI is over 53.4 µM in [1]; 16.5 µM in [2]; 3.31 µM in [3]; over 72.9 µM in assay [4]; over 31.6 µM in assay [5]; over 20.1 µM in assay [6]. Further, the figures for the TGI in assay [7], in [9] and in assay [10] were 43.8 µM, 0.397 µM and over 86 µM, respectively.

With `Fc1ccc(/C=N/n2c(-c3ccc(F)c(Cl)c3)n[nH]c2=S)cc1`, the GI50 in [1] is 12.9 µM; in assay [2] it was 34.8 µM; in assay [3], 36.5 µM; in [4], 16.3 µM; in assay [5] it was 25.4 µM; in assay [6], 34.8 µM. Also, the GI50 in assay [7] is 23.4 µM; in assay [8], 21.2 µM; in assay [9] it was 47.8 µM; in [10], 21.8 µM. Besides, the TGI in assay [1] was 27.9 µM; in [2] it was over 100 µM; in [3], 83.8 µM; in assay [4], 29.9 µM; in assay [5] it was 94.6 µM; in assay [6], over 100 µM. The TGI in [7] is 59.4 µM; in assay [8], 39.9 µM; in [9], over 100 µM; in [10] it was 48.3 µM.

With `COc1ccc2c(-c3ccnc(Nc4cccc(OC(F)(F)F)c4)n3)cnn2n1`, the GI50 is 0.904 µM in [1]; 2.14 µM in assay [2]; over 10.3 µM in [3]; 1.03 µM in assay [4]; 2.23 µM in [5]; 1.07 µM in assay [6]. Further, the GI50 in assay [7] was 0.73 µM; in assay [8] it was 1.74 µM; in [9], 0.877 µM; in assay [10] it was 3.53 µM. In addition, the TGI in assay [1] was over 25 µM; in assay [2], 8.82 µM; in [3], over 25 µM; in assay [4], 3.96 µM; in assay [5] it was over 25 µM; in [6] it was over 25 µM. Also, the TGI in assay [7] is 6.74 µM; in assay [8], 6.66 µM; in assay [9] it was over 9.77 µM; in [10], over 21.1 µM.

Take `CC1C=CC(OC(=O)C(C)(O)CCC(O)(C(=O)OC2CC(O)C(C(C)C)CC2(C)O)C(C)C)(C(C)C)CC1` (stereo not drawn): the GI50 in [1] is 0.263 µM; in [2], 2.7 µM; in [3] it was 0.716 µM; in assay [4], 0.16 µM; in assay [5], 0.193 µM; in [6], 0.655 µM. In addition, the GI50 was 0.725 µM in assay [7], 0.57 µM in assay [8], 0.594 µM in assay [9] and 0.665 µM in assay [10]. Moreover, the TGI amounted to 46.3 µM in [1]; 8.91 µM in assay [2]; 2.48 µM in [3]; 0.449 µM in [4]; 0.861 µM in [5]; 1.68 µM in [6]. The TGI in assay [7] amounted to 2.22 µM; in assay [8], 1.35 µM; in assay [9], 1.2 µM; in [10] it was 1.35 µM.

As to `C=CCc1cc(Nc2c3ccc(Cl)cc3nc3ccc(OC)cc23)cc(CN(CC)CC)c1O`, the GI50 in [1] was 0.362 µM; in [2], 2.71 µM; in [3] it was 1.15 µM; in [4], 0.365 µM; in [5], 1.24 µM; in assay [7], 2.88 µM. Also, the GI50 in assay [8] is 1.23 µM; in assay [9], 2.4 µM; in assay [10], 6.75 µM. Also, the TGI in [1] came out at 3.47 µM; in [2], 16.6 µM; in assay [3], 10.8 µM; in [4] it was 1.97 µM; in assay [5], 4.92 µM; in assay [7] it was 10.8 µM. The TGI in [8] was 4.66 µM; in [9], 11.1 µM; in assay [10], 26 µM.

With `CCC(=O)Nc1ccc(N2C(=O)/C(=C/c3ccc(OC)cc3)N=C2c2ccccc2)cc1`, the GI50 was 1.4 µM in assay [1]; 8.93 µM in [3]; 2.41 µM in [4]; 1.06 µM in assay [5]; 23.7 µM in assay [6]; 9.77 µM in assay [7]. The GI50 in assay [8] is 11.3 µM; in [9], 6.4 µM; in assay [10], over 50 µM. The TGI in assay [1] was over 50 µM; in assay [3], 33.7 µM; in assay [4], 8.9 µM; in assay [5], over 50 µM; in assay [6] it was over 50 µM; in [7], over 50 µM. Further, the TGI in assay [8] was over 50 µM; in assay [9] it was 21.7 µM; in assay [10] it was over 50 µM.

On to `CCN1C(=O)N(CC)C2C1NN=c1s/c(=C\c3ccc(F)cc3)c(=O)n12` (stereo not drawn), for which the GI50 was 0.0474 µM in [1]; 0.319 µM in [2]; 20.3 µM in [3]; 0.211 µM in assay [4]; 0.418 µM in assay [5]; 0.17 µM in assay [6]. In addition, the GI50 was 0.168 µM in assay [7], 0.162 µM in assay [8], 0.0722 µM in [9] and 0.473 µM in assay [10]. For the same compound, the TGI in assay [1] is over 37.3 µM; in assay [2], over 100 µM; in assay [3], over 100 µM; in assay [4], over 100 µM; in [5], over 100 µM; in [6], 0.514 µM. The TGI in [7] is over 100 µM; in assay [8] it was 0.622 µM; in [9] it was over 100 µM; in assay [10] it was over 100 µM.

In the case of `CC(CO)(Nc1ccc([N+](=O)[O-])cc1[N+](=O)[O-])C(=O)O` (stereo not drawn), the TGI in [1] was 24.8 µM; in assay [2], 43.6 µM; in assay [3] it was over 100 µM; in [4] it was over 100 µM; in [6], 35.4 µM; in assay [7], over 100 µM. For the same compound, the TGI was found to be 24.6 µM in assay [8], 89.8 µM in assay [9] and 89 µM in [10].

On to `COc1cc(/C=C/c2ccc3c(Br)cc(Br)c(O)c3n2)ccc1O`, for which the GI50 in assay [1] was 0.476 µM; in assay [3], 4.61 µM; in [4], 0.532 µM; in assay [5], 0.606 µM; in [6] it was 0.46 µM; in assay [7], 0.327 µM. For the same compound, the GI50 in assay [8] was 3.8 µM; in assay [9] it was 0.553 µM; in [10], 1.49 µM. Moreover, the TGI was found to be 3.41 µM in assay [1]; 17.4 µM in assay [3]; 3.7 µM in [4]; 7.04 µM in assay [5]; 2.92 µM in assay [6]; 1.49 µM in [7]. Further, the TGI in assay [8] is 18.3 µM; in [9], 5.42 µM; in assay [10], 5.84 µM.

As to `COc1cc(-c2nn(-c3cccc(NC(=O)CCN4CCN(Cc5ccccc5)CC4)c3)cc2-c2ccncc2)ccc1Cl`, the GI50 was 0.393 µM in assay [1]; 1.68 µM in assay [2]; 2.91 µM in assay [3]; 0.406 µM in [4]; 1.15 µM in [5]; 0.632 µM in [6]. The GI50 in [7] is 0.44 µM; in assay [8] it was 0.705 µM; in assay [10], 3.02 µM. In addition, the TGI in assay [1] is 2.48 µM; in assay [2] it was 3.82 µM; in assay [3] it was 47.7 µM; in [4], 1.75 µM; in assay [5], 5.8 µM; in assay [6], 4.21 µM. For the same compound, the TGI in [7] is 2.28 µM; in assay [8], 2.28 µM; in [10], over 100 µM.

`COc1ccc(/C=C(\C)[N+](=O)[O-])cc1OC`: the GI50 in assay [1] was 2.04 µM; in [2], 1.82 µM; in [3] it was 19.2 µM; in assay [4] it was 1.81 µM; in assay [5] it was 3.86 µM; in [7] it was 3.55 µM. Moreover, the GI50 in assay [8] is 1.72 µM; in assay [9] it was 1.88 µM; in [10], 1.73 µM. Moreover, the TGI in assay [1] was over 100 µM; in [2], 3.29 µM; in assay [3], 40.5 µM; in assay [4] it was 3.46 µM; in assay [5], 9.52 µM; in [7], 13.4 µM. Moreover, the TGI in [8] came to 3.18 µM; in assay [9] it was 3.89 µM; in assay [10], 3.31 µM.

As to `COc1cc(C(=O)Nc2cc(O)c(CC=C(C)C)c(O)c2)cc2c1O[C@]1(C)CC[C@@H](O)C(C)(C)[C@H]1C2`, the GI50 was 0.0624 µM in assay [1]; 3.13 µM in [2]; 3.04 µM in assay [3]; 0.219 µM in [4]; 0.0641 µM in assay [5]; 29.8 µM in [7]. For the same compound, the GI50 in assay [8] was 0.0345 µM; in assay [9] it was 0.491 µM; in [10], 3.44 µM. Besides, the TGI in [1] was over 100 µM; in assay [2], 13.8 µM; in assay [3], 61.3 µM; in [4], 10.8 µM; in assay [5], 1.38 µM; in assay [7], over 100 µM. In addition, the TGI came out at 2.89 µM in assay [8], 63.1 µM in assay [9] and 37 µM in [10].

Consider `CC(C)C[C@H](NC(=O)CCn1ccc2ccccc2c1=O)B(O)O`, for which the GI50 in [1] is 1.7 µM; in assay [2], 6.08 µM; in assay [3] it was 1.47 µM; in [4], 1.55 µM; in assay [5] it was 1.28 µM; in assay [6], 2.69 µM. For the same compound, the GI50 in assay [7] is 67.1 µM; in [9] it was 2.93 µM; in assay [10], 18.8 µM. The TGI in assay [1] turned out to be 28.9 µM; in [2] it was 21.3 µM; in [3], 3.24 µM; in [4], 19.8 µM; in [5], 5.94 µM; in assay [6], 49.5 µM. For the same compound, the results for the TGI in assay [7], in assay [9] and in [10] were over 100 µM, 27 µM and over 100 µM, respectively.

`CN=C1OC2(c3ccccc3)C3=C(OC(=NC)N2C)C(=O)OC3(c2ccccc2)N1C` (stereo not drawn): the TGI in assay [1], in [2], in assay [3], in assay [4], in [5] and in [6] was over 100 µM throughout. Also, the TGI in assay [7], in assay [9] and in assay [10] was over 100 µM throughout.

As for `O=C(Nc1ccccc1OC(=O)c1ccccc1)c1ccccc1`, the GI50 in [1] was 3.12 µM; in [2], 30.1 µM; in assay [3], over 100 µM; in assay [4] it was 3.69 µM; in assay [5] it was 3.55 µM; in assay [7], 19.2 µM. In addition, the GI50 in [8] was 50.9 µM; in [9], 5.84 µM; in assay [10], 51.5 µM. Also, the TGI in assay [1], in [2], in [3], in assay [4], in assay [5] and in assay [7] was over 100 µM throughout. Moreover, the TGI is over 100 µM in assay [8], 54.4 µM in assay [9] and over 100 µM in assay [10].

On to `Cc1[nH]nc(-c2ccon2)c1N=O`, for which the TGI was 29.5 µM in [1]; 28.6 µM in assay [3]; 56.8 µM in [4]; 6.18 µM in [5]; 36.3 µM in [6]; 38 µM in [7]. In addition, the TGI in assay [8] amounted to 97.7 µM; in assay [9], 60.5 µM; in assay [10], 35.1 µM.
